Where two headings read alike, the source gives them in different places.
Tests used:
[1] = system: C6 (rat glioma cell line); test: MTT cell viability assay, C6; assay type: cell-based
Experimental: (§1) The anticancer activity of compounds 4a–l were screened according to the MTT assays. The MTT assays were performed as previously described.[3] Anticancer activity of final compounds was assessed against […] A549 (lung carcinoma cell line) and C6 (rat glioma cell line) cell lines.

[2] = system: A549 (lung carcinoma cell line); test: MTT cell viability assay, A549; assay type: cell-based; conditions: Homo sapiens
Experimental: as §1

[3] = target: T1, DNA topoisomerase I (Homo sapiens, UniProt P11387); test: DNA topoisomerase I assay (TopoGen kit, relaxation of supercoiled plasmid DNA, agarose gel); assay type: biochemical; conditions: supercoiled plasmid DNA pHOT 1, 30 min at 37 °C
T1 construct: purchased TopoGen TG1018–2
T1 sequence (P11387 1-765): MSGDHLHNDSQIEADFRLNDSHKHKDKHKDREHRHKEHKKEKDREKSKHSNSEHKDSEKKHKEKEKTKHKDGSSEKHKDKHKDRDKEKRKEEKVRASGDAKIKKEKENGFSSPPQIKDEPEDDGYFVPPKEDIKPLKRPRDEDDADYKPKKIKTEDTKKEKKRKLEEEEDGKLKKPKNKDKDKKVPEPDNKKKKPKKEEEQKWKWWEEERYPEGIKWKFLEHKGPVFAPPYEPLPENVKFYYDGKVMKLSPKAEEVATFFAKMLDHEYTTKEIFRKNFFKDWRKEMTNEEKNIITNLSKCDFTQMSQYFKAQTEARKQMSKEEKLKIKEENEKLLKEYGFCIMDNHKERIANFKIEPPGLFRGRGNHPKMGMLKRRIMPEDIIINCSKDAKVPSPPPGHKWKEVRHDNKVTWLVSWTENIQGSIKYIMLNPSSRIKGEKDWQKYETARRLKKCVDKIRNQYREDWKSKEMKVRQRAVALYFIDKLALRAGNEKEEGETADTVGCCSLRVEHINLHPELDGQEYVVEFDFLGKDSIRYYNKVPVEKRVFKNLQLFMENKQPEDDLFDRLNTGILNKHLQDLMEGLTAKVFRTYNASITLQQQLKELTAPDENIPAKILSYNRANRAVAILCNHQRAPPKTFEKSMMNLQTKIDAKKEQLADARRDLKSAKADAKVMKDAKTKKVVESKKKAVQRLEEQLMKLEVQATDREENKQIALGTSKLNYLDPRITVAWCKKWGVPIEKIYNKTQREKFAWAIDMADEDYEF
Experimental: Topogen’s Topoisomerase I Drug Screening Kit was used to investigate the topoisomerase I effects of the compounds. With this kit, it is determined whether the compounds that inhibit Topo I activity act as catalytic inhibitors or topoisomerase poisons. Topoisomerase I inhibition activities of compounds 4b, 4h, Hoechst 33342, and camptothecin were evaluated in vitro and the analysis of the reaction products was visualized by the electrophoresis method. Supercoiled plasmid DNA (pHOT 1) was used as the control group. As another control group, plasmid DNA and topoisomerase I were used to ensure that the DNA became relaxed. Hoechst 33342, known as a topoisomerase poison, and camptothecin were used as positive controls.
Using agarose gel electrophoresis, the topoisomerase I inhibitory activities of the final compounds were assessed by measuring the relaxation of supercoiled plasmid DNA. A positive control, camptothecin, was used. A final volume of 20 μL reaction volume was used for the experiment, which contained 2 μL of 10× TGS buffer, […], 2 μL of supercoiled plasmid DNA, 2 μL of the test compound, 2 μL of Topo I, 2 μl of 10% SDS, 2 μL of proteinase K, and 2 μL of the DNA loading dye. Following a 30 min incubation period at 37 °C, the reaction mixtures were electrophoresed using 1× TAE buffer for 75 min at a potential of 50 V on a 1% agarose gel.[25]

[4] = system: NIH3T3 (mouse embryo fibroblast cell line); test: MTT cell viability assay, NIH3T3 healthy cells; assay type: cell-based
[5] = system: Topo II; design: method as in PMID 35870412; conditions: read-out: IC50 Topo II enzyme inhibition; cited from earlier work

SMILES | IC50 [1] [µM] | IC50 [2] [µM] | Topoisomerase I inhibitory effect (gel electrophoresis) [3] | IC50 [4] [µM] | melting point [°C] | IC50 ([4]; NIH3T3, heading: IC50 NIH3T3) [µM] | IC50 [5] [µM]
CCn1c(SCC(=O)N2CCN(c3ncccn3)CC2)nnc1-c1ccc2nc(-c3ccc(OC)cc3)[nH]c2c1 [4h, 2-((4-Ethyl-5-(2-(4-methoxyphenyl)-1H-benzo[d]imidazol-6-yl)-4H-1,2,4-triazol-3-yl)thio)-1-(4-(2-pyrimidinyl)piperazin-1-yl)ethanone] | 13.2 ± 0.46 | 4.56 ± 0.18 | significant inhibitory activity | 74.4 ± 2.68 | 190.5 |  | 
CCOc1ccc(-c2nc3ccc(-c4nnc(SCC(=O)N5CCN(c6ncccn6)CC5)n4CC)cc3[nH]2)cc1 [4l, 2-((4-Ethyl-5-(2-(4-ethoxyphenyl)-1H-benzo[d]imidazol-6-yl)-4H-1,2,4-triazol-3-yl)thio)-1-(4-(2-pyrimidinyl)piperazin-1-yl)ethanone] | 38.8 ± 1.82 | 12.4 ± 0.54 |  | 35.7 ± 1.11 | 140.8 |  | 
CCn1c(SCC(=O)N2CCN(c3ccccc3)CC2)nnc1-c1ccc2nc(-c3ccc(OC)cc3)[nH]c2c1 [4f, 2-((4-Ethyl-5-(2-(4-methoxyphenyl)-1H-benzo[d]imidazol-6-yl)-4H-1,2,4-triazol-3-yl)thio)-1-(4-phenylpiperazin-1-yl)ethanone] | > 100 | 69.4 ± 3.04 |  | 92.8 ± 3.06 | 153.8 |  | 
COc1cccc2c1C(=O)c1c(O)c3c(c(O)c1C2=O)C[C@@](O)(C(=O)CO)C[C@@H]3O[C@H]1C[C@H](N)[C@H](O)[C@H](C)O1 [doxorubicin, reference compound] |  |  |  |  |  | 1.06 ± 0.00917 | 
CCOc1ccc(-c2nc3ccc(-c4nnc(SCC(=O)N5CCN(c6ccccc6)CC5)n4CC)cc3[nH]2)cc1 [4j, 2-((4-Ethyl-5-(2-(4-ethoxyphenyl)-1H-benzo[d]imidazol-6-yl)-4H-1,2,4-triazol-3-yl)thio)-1-(4-phenylpiperazin-1-yl)ethanone] | > 100 | 54.1 ± 2.18 |  | 69.5 ± 2.85 | 118.8 |  | 
CCn1c(SCC(=O)N2CCN(c3ccccn3)CC2)nnc1-c1ccc2nc(-c3ccc(OC)cc3)[nH]c2c1 [4g, 2-((4-Ethyl-5-(2-(4-methoxyphenyl)-1H-benzo[d]imidazol-6-yl)-4H-1,2,4-triazol-3-yl)thio)-1-(4-(2-pyridinyl)piperazin-1-yl)ethanone] | > 100 | 87.2 ± 3.97 |  | 85.9 ± 2.92 | 204.3 |  | 
CC[C@@]1(O)C(=O)OCc2c1cc1n(c2=O)Cc2cc3ccccc3nc2-1 [camptothecin, reference compound] |  |  | strong inhibitory effect as a topoisomerase poison |  |  |  | 
CN[C@@H]1C[C@H]2O[C@@](C)([C@@H]1OC)n1c3ccccc3c3c4c(c5c6ccccc6n2c5c31)C(=O)NC4 [staurosporine] |  |  |  |  |  |  | 4.64
CCOc1ccc(-c2nc3ccc(-c4nnc(SCC(=O)N5CCN(c6ccccn6)CC5)n4CC)cc3[nH]2)cc1 [4k, 2-((4-Ethyl-5-(2-(4-ethoxyphenyl)-1H-benzo[d]imidazol-6-yl)-4H-1,2,4-triazol-3-yl)thio)-1-(4-(2-pyridinyl)piperazin-1-yl)ethanone] | 64.6 ± 2.66 | 24.9 ± 1.21 |  | 46.4 ± 1.21 | 162.2 |  | 
CCN1CCN(C(=O)CSc2nnc(-c3ccc4nc(-c5ccc(OC)cc5)[nH]c4c3)n2CC)CC1 [4e, 2-((4-Ethyl-5-(2-(4-methoxyphenyl)-1H-benzo[d]imidazol-6-yl)-4H-1,2,4-triazol-3-yl)thio)-1-(4-ethylpiperazin-1-yl)ethanone] | > 100 | 75.7 ± 2.55 |  | 77.7 ± 2.47 | 112.7 |  | 
CCOc1ccc(-c2nc3ccc(-c4nnc(SCC(=O)N5CCN(CC)CC5)n4CC)cc3[nH]2)cc1 [4i, 2-((4-Ethyl-5-(2-(4-ethoxyphenyl)-1H-benzo[d]imidazol-6-yl)-4H-1,2,4-triazol-3-yl)thio)-1-(4-ethylpiperazin-1-yl)ethanone] | 39.4 ± 2.58 | 33 ± 1.42 |  | 30.6 ± 1.08 | 144.3 |  | 
CCN1CCN(C(=O)CSc2nnc(-c3ccc4nc(-c5ccc(O)cc5)[nH]c4c3)n2CC)CC1 [4a, 2-((4-Ethyl-5-(2-(4-hydroxyphenyl)-1H-benzo[d]imidazol-6-yl)-4H-1,2,4-triazol-3-yl)thio)-1-(4-ethylpiperazin-1-yl)ethanone] | > 100 | 21.8 ± 1.04 |  | 64.8 ± 1.96 | 223.5 |  | 
CCOc1ccc(-c2nc3ccc(-c4nc5cc(N6CCN(C)CC6)ccc5[nH]4)cc3[nH]2)cc1 [Hoechst 33342, reference compound] | 1.05 ± 0.3 | 0.422 ± 0.02 | strong inhibitory effect as a topoisomerase poison | 13 ± 0.598 |  |  | 
CCn1c(SCC(=O)N2CCN(c3ccccn3)CC2)nnc1-c1ccc2nc(-c3ccc(O)cc3)[nH]c2c1 [4c, 2-((4-Ethyl-5-(2-(4-hydroxyphenyl)-1H-benzo[d]imidazol-6-yl)-4H-1,2,4-triazol-3-yl)thio)-1-(4-(2-pyridinyl)piperazin-1-yl)ethanone] | 24 ± 2.4 | 15.8 ± 0.63 |  | 32.2 ± 0.74 | 312.4 |  | 
CCn1c(SCC(=O)N2CCN(c3ccccc3)CC2)nnc1-c1ccc2nc(-c3ccc(O)cc3)[nH]c2c1 [4b, 2-((4-Ethyl-5-(2-(4-hydroxyphenyl)-1H-benzo[d]imidazol-6-yl)-4H-1,2,4-triazol-3-yl)thio)-1-(4-phenylpiperazin-1-yl)ethanone] | 42.1 ± 2.1 | 7.34 ± 0.21 | significant inhibitory activity | 56.7 ± 1.18 | 319 |  | 
CCn1c(SCC(=O)N2CCN(c3ncccn3)CC2)nnc1-c1ccc2nc(-c3ccc(O)cc3)[nH]c2c1 [4d, 2-((4-Ethyl-5-(2-(4-hydroxyphenyl)-1H-benzo[d]imidazol-6-yl)-4H-1,2,4-triazol-3-yl)thio)-1-(4-(2-pyrimidinyl)piperazin-1-yl)ethanone] | > 100 | 54.4 ± 1.84 |  | 80.5 ± 2.76 | 144 |  | 
